Reference: patent publication US9579315B2, “Methods of treating obstructive lung diseases using bitter tastants” (UNIVERSITY OF MARYLAND, BALTIMORE, priority 2010, dated 2017)
Like-named read-outs stand apart in the source and are kept apart here.

What was measured:
[1] = test system: human airway smooth muscle cells; assay: [Ca2+]i increase in cultured primary human airway smooth muscle cells (Fluo-4 AM); format: cell-based; details: for effect on saccharin-elicited [Ca2+]i increase: absence of extracellular calcium, FIG. 1d; for [Ca2+]i response in human ASM cells: 1.0 mM tastant, FIG. 1c
Experimental: (§1) Dose response curves for [Ca^2+]i and ex vivo tracheal ring studies were analyzed by iterative non-linear (sigmoidal) least squares fitting. Results from all studies were compared using paired or unpaired two-way t-tests (depending on study design), with P<0.05 considered significant. When multiple comparisons were sought, an ANOVA with post-hoc t-tests was utilized with a correction for multiple comparisons. Data are presented as mean±standard error.

intact mouse tracheas = assay: Ex vivo relaxation of intact mouse tracheal rings (isometric myograph); details: for relaxation of airways contracted by serotonin: 1.0 mM serotonin, FIG. 4b; for EC50: Mus musculus
Experimental: Briefly, tracheal rings fitted between a fixed wire and a transducer-coupled wire were maintained in Krebs buffer at 37° C. with aeration from 95% O2, 5% CO2.
as §1

isolated human ASM cells = assay: Magnetic twisting cytometry, stiffness of isolated human ASM cells; format: cell-based; details: for effect on saccharin-promoted relaxation of isolated ASM: 1 mM saccharin, U73122 1 μM, H89 100 nM, IbTx and ChTx 100 nM (FIG. 7b); for change in single-cell stiffness from baseline: isolated human ASM cells, FIG. 7a
Experimental: Dynamic changes in baseline cell stiffness were measured as an indicator of contraction and relaxation of isolated human ASM cells using magnetic twisting cytometry as described in detail previously^15. In brief, Arg-Gly-Asp coated ferromagnetic microbeads bound to adherent human ASM cells were magnetized horizontally and then twisted in a vertically aligned homogenous magnetic field that was varying sinusoidally in time. Sinusoidal twisting magnetic field caused both a rotation and a pivoting displacement of the bead: such forced bead motions are, in turn, impeded by internal stresses developed by the cell. Lateral bead displacements in response to the resulting oscillatory torque were detected with a spatial resolution of ˜5 nm, and the ratio of specific torque to bead displacements was computed and expressed as the cell stiffness in units of Pascal/nm (Pa/nm). For each individual ASM cell, baseline stiffness was measured for the first 60 sec, and after drug addition stiffness was measured continuously for the next 540 sec. […] For each cell, stiffness was normalized to its baseline stiffness prior to the agonist stimulation.

mouse model of asthma = assay: Airway resistance in control and ovalbumin-sensitized mice (flexiVent); format: in vivo; details: for decrease in airway resistance: aerosol during methacholine bronchoconstriction, quinine 150 μg, denatonium 200 μg
Experimental: Sensitization of 6-week old BALB/c mice was carried out by i.p. injections of […] ovalbumin in 200 μl alum, or alum alone (control) on days 0 and 14. Mice were then challenged with 1.0% aerosolized ovalbumin on days 19, 21 and 24. Twenty-four hours after the last challenge, mice were sedated, intubated and the flexiVent system (SCIREQ) was utilized for ventilation and measurement of airway resistance as previously described^40. Ventilation was at 150 breaths/min with a tidal volume of 240 μl and positive end expiratory pressure of 2.5 cm H2O. After stabilization, mice were challenged with doses of aerosolized methacholine (2.0, 4.0, 8.0 and 16 mg/ml in the nebulizer) until the sustained airway resistance became ˜5-fold greater than baseline. Three minutes after the last […] inhalation, the bitter tastants quinine (150 μg) or denatonium (200 μg), or the β-agonist albuterol (3.0 μg) were administered by aerosol over 10 sec. Resistance measurements (Raw, cm H2O/ml/sec) were taken every 30 sec throughout the experiment.

ASM cells = assay: Membrane potential of ASM cells (membrane potential-sensitive fluorescent dye); format: cell-based, human; details: for change of membrane potential: 60 mM KCl, 1.0 μM histamine, 1 mM saccharin or chloroquine
Experimental: Primary human ASM cells were obtained from a commercial source (Clonetics) and maintained as described^31, with experiments performed using cells at passages 3-8. […] The effects of bitter tastants on membrane potential of whole ASM cells was measured using a membrane potential-sensitive fluorescent dye (Molecular Devices) as described^19 in a 96 well plate format with 50,000 cells/well. Excitation was at 530 nm and emission acquired at 565 nm. Data were collected in real time for 300 sec and are shown as relative fluorescent units.

human ASM cells [2] = assay: PKA-mediated VASP phosphorylation, Western blot in human ASM cells; format: cell-based; details: 1.0 mM chloroquine or saccharin, 10 μM forskolin
Experimental: Primary human ASM cells were obtained from a commercial source (Clonetics) and maintained as described^31, with experiments performed using cells at passages 3-8. These cells consisted of >95% airway smooth muscle as previously ascertained^31. For detecting changes in [Ca^2+]i attached cells in 96-well plates (80,000 cells/well) were loaded with Fluo-4 AM (BD Biosciences) with probenecid for one hour at 37° C. Receptor agonists were added at the indicated concentrations at 37° C. by an automated pipetting system in triplicate and the 525 nm signals were generated by excitation at 485 nm using a Flex Station II (Molecular Devices). Data was acquired every 1.5 sec for 60 sec. Unless otherwise stated, studies were performed in media containing 1.5 mM calcium. In some studies, ASM were transfected with T2R10 siRNA (Invitrogen) or a scrambled-sequence siRNA control by electroporation (Nucleofector, Lonza) using 4×10^6 cells and 4 μg of siRNA. Twenty-four hours later cells were transferred to the 96-well plates for the [Ca^2+]i assay. […] Samples were acetylated and cAMP measured by a highly sensitive ^125I-cAMP based radioimmunoassay as previously described^32. […] The effects of bitter tastants on membrane potential of whole ASM cells was measured using a membrane potential-sensitive fluorescent dye (Molecular Devices) as described^19 in a 96 well plate format with 50,000 cells/well. […]

human ASM cells [3] = details: 0.3 mM saccharin, 1.0 μM histamine
BEAS2B cells = assay: [Ca2+]i-stimulated dose-response in BEAS2B cells; format: cell-based, human
Experimental: (§2) In one example, cells are grown in multi-well dishes, loaded with a fluorescence-based calcium indicator dye, and test compounds are added with subsequent monitoring of the change in fluorescence indicative of a change in intracellular calcium [Ca^2+]i release. Test compounds can include, e.g., those with structural similarities to the known bitter taste receptor agonists or antagonists.
(§3) If appropriate, airway cells can also be tested using them within tracheal rings, as described herein and as is well-known in the art.

H292 cells = assay: [Ca2+]i-stimulated dose-response in H292 cells; format: cell-based, human; details: for EC50: Homo sapiens
Experimental: as §2, §3

## NCCOB(c1ccccc1)c1ccccc1 [2APB]
[1]
  effect on saccharin-elicited [Ca2+]i increase: partially inhibited

## C/C=C(/C)C(=O)O[C@H]1C(C)=C2[C@H]([C@@H]1OC(=O)CCCCCCC)[C@@](C)(OC(C)=O)C[C@H](OC(=O)CCC)[C@@]1(O)[C@H]2OC(=O)[C@@]1(C)O [Thapsigargin, thapsigargin]
Intact mouse tracheas; 10 μM thapsigargin pre-incubation, chloroquine 3.0 mM
  effect on chloroquine-mediated relaxation of intact airway rings: blocked
[1]; 10 μM thapsigargin pre-incubation 30 min
  effect on chloroquine and other bitter tastant-mediated [Ca2+]i stimulation: blocked

## charybdotoxin
Isolated human ASM cells
  effect on saccharin-promoted relaxation of isolated ASM: ablated

## O=S(=O)(NCCNC/C=C/c1ccc(Br)cc1)c1cccc2cnccc12 [H89]
Isolated human ASM cells
  effect on saccharin-promoted relaxation of isolated ASM: not blocked

## CC[N+](CC)(CC(=O)Nc1c(C)cccc1C)Cc1ccccc1 [denatonium]
Mouse model of asthma; normal mice
  decrease in airway resistance: 44±6%
Mouse model of asthma; ovalbumin-sensitized mice
  decrease in airway resistance: 57±4%
[1]
  [Ca2+]i response in human ASM cells: evoked increased [Ca^2+]i

## CC(C)NCC(O)c1ccc(O)c(O)c1 (stereo not drawn) [isoproterenol]
Intact mouse tracheas; maximal concentration of isoproterenol (30 μM)
  relaxation after chloroquine exposure, washout and acetylcholine re-challenge: 29±4.3%
Intact mouse tracheas; tracheas contracted with 1.0 mM acetylcholine
  maximal relaxation response, loss of active contraction / reduction in active tension: 30±9.2%
Isolated human ASM cells
  change in single-cell stiffness from baseline: relaxation

## C[C@H](NC(=NCC(=O)O)Nc1ccc(C#N)cc1)c1ccccc1 [SC45647]
[1]
  [Ca2+]i response in human ASM cells: no response

## COc1ccc2c(c1)CC[C@@H]1[C@@H]2CC[C@]2(C)[C@@H](NCCCCCCN3C(=O)C=CC3=O)CC[C@@H]12 [U73122]
Isolated human ASM cells
  effect on saccharin-promoted relaxation of isolated ASM: eliminated
[1]
  effect on saccharin-elicited [Ca2+]i increase: ablated

## COC(=O)[C@@H]1[C@H]2C[C@H]3c4[nH]c5ccccc5c4CCN3C[C@@H]2CC[C@@H]1O [yohimbine]
[1]
  [Ca2+]i response in human ASM cells: [Ca^2+]i responses

## CC(=O)OC(C)C[N+](C)(C)C (stereo not drawn) [methacholine]
Mouse model of asthma; non-sensitized mice
  concentration of inhaled methacholine required to increase baseline airway resistance by 5-fold: 16 mg/mL
Mouse model of asthma; ovalbumin-sensitized mice
  concentration of inhaled methacholine required to increase baseline airway resistance by 5-fold: 8 mg/mL

## COC(=O)[C@@H](N)CCCNC(=N)N[N+](=O)[O-] [L-NAME]
Intact mouse tracheas
  effect on bitter tastant-mediated airway relaxation: not altered

## O=C1OC2(c3ccccc31)c1ccc(O)c(O)c1Oc1c2ccc(O)c1O [gallein]
[1]
  effect on saccharin-elicited [Ca2+]i increase: ablated

## COc1cc2c(c(OC)c1OC)-c1ccc(OC)c(=O)cc1[C@@H](NC(C)=O)CC2 [colchicine]
[1]
  [Ca2+]i response in human ASM cells: relatively low response

## COc1ccc2c(c1)c(CC(=O)O)c(C)n2C(=O)c1ccc(Cl)cc1 [indomethacin]
Intact mouse tracheas
  effect on bitter tastant-mediated airway relaxation: not altered

## OC[C@H]1O[C@H](O[C@]2(CCl)O[C@H](CCl)[C@@H](O)[C@@H]2O)[C@H](O)[C@@H](O)[C@H]1Cl [sucralose]
[1]
  [Ca2+]i response in human ASM cells: no response

## iberiotoxin (QFTDVDCSVSKECWSVCKDLFGVDRGKCMGKKCRCYQ; UniProt P24663 1-37, looked up) [specific BKCa channel antagonist]
Intact mouse tracheas; 1 mM chloroquine, 100 nM iberiotoxin pretreatment
  effect on chloroquine-promoted relaxation in the isolated mouse airway: attenuated
Isolated human ASM cells
  effect on saccharin-promoted relaxation of isolated ASM: ablated
ASM cells; 100 nM iberiotoxin preincubation
  effect on bitter tastant-promoted membrane hyperpolarization: completely inhibited

## O=C1NS(=O)(=O)c2ccccc21 [saccharin]
Isolated human ASM cells
  change in single-cell stiffness from baseline: resulted in ASM relaxation
Human ASM cells [2]
  PKA-mediated VASP phosphorylation: Neither chloroquine nor saccharin promoted VASP phosphorylation
[1]
  [Ca2+]i response in human ASM cells: evoked increased [Ca^2+]i

## NCCc1c[nH]cn1 [histamine]
Isolated human ASM cells
  change in single-cell stiffness from baseline: contraction
Human ASM cells [3]
  spatial pattern of [Ca2+]i response: rapid rise in [Ca^2+]i throughout the cell
ASM cells
  change of membrane potential: membrane depolarization

## [Cl-].[K+] [KCl]
ASM cells
  change of membrane potential: membrane depolarization

## COc1cccc2c1cc([N+](=O)[O-])c1c(C(=O)O)cc3c(c12)OCO3 [aristocholic acid]
[1]
  [Ca2+]i response in human ASM cells: [Ca^2+]i responses

## CCN(CC)CCCC(C)Nc1ccnc2cc(Cl)ccc12 (stereo not drawn) [chloroquine]
Intact mouse tracheas
  relaxation of airways contracted by serotonin: marked relaxation
Intact mouse tracheas; read-out: EC50 for relaxation, contraction stimulated by acetylcholine
  EC50: 93 ± 4.3 µM
Intact mouse tracheas; read-out: EC50 for relaxation, contraction stimulated by serotonin
  EC50: 110 ± 32 µM
Intact mouse tracheas; submaximal dose of chloroquine (200 μM), 1.0 mM acetylcholine
  relaxation of acetylcholine-mediated constriction: ~67%
BEAS2B cells
  efficacy: 13,995 fluorescence units
BEAS2B cells; Homo sapiens, BEAS-2B, read-out: potency, [Ca2+]i-stimulated dose-response curve
  EC50: 90 µM
Isolated human ASM cells
  change in single-cell stiffness from baseline: resulted in ASM relaxation
ASM cells
  change of membrane potential: membrane hyperpolarization
H292 cells; H292 cells
  efficacy: 37,136 fluorescence units
H292 cells; NCI-H292, read-out: potency, [Ca2+]i-stimulated dose-response curve
  EC50: 74 µM
[1]
  [Ca2+]i response in human ASM cells: evoked increased [Ca^2+]i
[1]; Homo sapiens, cultured ASM cells, FIG. 1a, read-out: EC50 for [Ca2+]i release
  EC50: 70 ± 10 µM
[1]; human airway smooth muscle cells, FIG. 14
  efficacy, net change in fluorescence units: 84,317 fluorescence units
[1]; human airway smooth muscle cells, FIG. 14, read-out: potency, [Ca2+]i dose-response curve
  EC50: 70 µM

## C=C[C@H]1C[N@@]2CC[C@H]1C[C@H]2[C@H](O)c1ccnc2ccc(OC)cc12 [quinine]
Intact mouse tracheas
  relaxation of airways contracted by serotonin: marked relaxation
Mouse model of asthma; normal mice
  decrease in airway resistance: 53±2.96%
Mouse model of asthma; ovalbumin-sensitized mice
  decrease in airway resistance: 50±8%
H292 cells; H292 cells
  efficacy: 133,201 fluorescence units
H292 cells; NCI-H292, H292 cells, read-out: potency, [Ca2+]i-stimulated dose-response curve
  EC50: 703 µM
[1]
  [Ca2+]i response in human ASM cells: [Ca^2+]i responses

## OCc1ccccc1O[C@@H]1O[C@H](CO)[C@@H](O)[C@H](O)[C@H]1O [salicin]
[1]
  [Ca2+]i response in human ASM cells: no response
